Assay results reported in US10016438B2, “Bicyclic heterocycles as FGFR4 inhibitors” (Incyte Corporation, priority 2015, dated 2018).

Target: FGFR4 (Homo sapiens (Human), UniProt P22455)
Experiment: FGFR Enzymatic Assay (FRET peptide phosphorylation), FGFR4
Conditions: IC50 ratio showing FGFR4 selectivity
[1] = pre-incubated for 5 to 10 minutes

Chain of FGFR4 (P22455 22-802): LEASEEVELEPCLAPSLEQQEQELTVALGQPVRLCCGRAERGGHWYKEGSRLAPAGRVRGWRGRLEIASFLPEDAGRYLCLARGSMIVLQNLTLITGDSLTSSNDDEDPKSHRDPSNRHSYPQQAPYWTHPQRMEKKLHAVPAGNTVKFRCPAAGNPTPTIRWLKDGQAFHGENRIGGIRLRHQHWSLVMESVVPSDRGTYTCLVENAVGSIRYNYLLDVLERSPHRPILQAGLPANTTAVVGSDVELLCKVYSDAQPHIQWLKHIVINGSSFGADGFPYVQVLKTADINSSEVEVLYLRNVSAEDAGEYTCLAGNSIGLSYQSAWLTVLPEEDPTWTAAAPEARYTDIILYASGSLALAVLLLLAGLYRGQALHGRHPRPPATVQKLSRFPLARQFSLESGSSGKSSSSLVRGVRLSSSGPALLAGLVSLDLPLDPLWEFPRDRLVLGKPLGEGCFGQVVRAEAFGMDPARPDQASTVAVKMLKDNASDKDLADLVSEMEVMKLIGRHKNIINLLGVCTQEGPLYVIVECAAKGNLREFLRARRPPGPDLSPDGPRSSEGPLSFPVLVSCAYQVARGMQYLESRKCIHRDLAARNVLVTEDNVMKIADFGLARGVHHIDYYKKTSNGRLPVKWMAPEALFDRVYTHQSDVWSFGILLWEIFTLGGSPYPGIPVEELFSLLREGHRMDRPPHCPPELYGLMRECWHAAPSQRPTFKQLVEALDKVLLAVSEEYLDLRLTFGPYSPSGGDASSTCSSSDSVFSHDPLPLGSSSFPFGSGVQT
Source text: The enzymes were purchased from Millipore or Invitrogen.
GraphPad prism3 was used to analyze the data. The IC50 values were derived by fitting the data to the equation for a sigmoidal dose-response with a variable slope. Y=Bottom+(Top−Bottom)/(1+10^((Log IC50−X)*HillSlope)) where X is the logarithm of concentration and Y is the response.

Structure (SMILES) | FGFR1/FGFR4 (pre-incubated for 4 hours) | FGFR2/FGFR4 (pre-incubated for 4 hours) | FGFR3/FGFR4 (pre-incubated for 4 hours) | FGFR1/FGFR4 [1] | FGFR2/FGFR4 [1] | FGFR3/FGFR4 [1]
C=CC(=O)Nc1cnn(Cc2cccnc2)c1-c1cc2c(cn1)CN(c1c(F)c(OC)cc(OC)c1F)C(=O)C21CC1 [Example 22, N-(5-(2′-(2,6-difluoro-3,5-dimethoxyphenyl)-3′-oxo-2′,3′-dihydro-1′H-spiro[cyclopropane-1,4′-[2,7]naphthyridine]-6′-yl)-1-(pyridin-3-ylmethyl)-1H-pyrazol-4-yl)acrylamide] | >100 | >100 | >100 |  |  | 
C=CC(=O)Nc1cnn(Cc2ccncc2)c1-c1cc2c(cn1)CN(c1c(F)c(OC)cc(OC)c1F)C(=O)C21CC1 [Example 21, N-(5-(2′-(2,6-difluoro-3,5-dimethoxyphenyl)-3′-oxo-2′,3′-dihydro-1′H-spiro[cyclopropane-1,4′-[2,7]naphthyridine]-6′-yl)-1-(pyridin-4-ylmethyl)-1H-pyrazol-4-yl)acrylamide] | >100 | >50 | >100 |  |  | 
C=CC(=O)Nc1cnn(C2CCOCC2)c1-c1cc2c(cn1)CN(c1c(F)c(OC)cc(OC)c1F)C(=O)C21CC1 [Example 18, N-(5-(2′-(2,6-difluoro-3,5-dimethoxyphenyl)-3′-oxo-2′,3′-dihydro-1′H-spiro[cyclopropane-1,4′-[2,7]naphthyridine]-6′-yl)-1-(tetrahydro-2H-pyran-4-yl)-1H-pyrazol-4-yl)acrylamide] | >100 | >50 | >100 |  |  | 
C=CC(=O)Nc1cnn(C[C@H]2CCCO2)c1-c1cc2c(cn1)CN(c1c(F)c(OC)cc(OC)c1F)C(=O)C21CC1 [Example 30, (R)-N-(5-(2′-(2,6-difluoro-3,5-dimethoxyphenyl)-3′-oxo-2′,3′-dihydro-1′H-spiro[cyclopropane-1,4′-[2,7]naphthyridine]-6′-yl)-1-((tetrahydrofuran-2-yl)methyl)-1H-pyrazol-4-yl)acrylamide] | >100 | >100 | >100 |  |  | 
C=CC(=O)N1CCCC(c2cc3c(cn2)CN(c2c(F)c(OC)cc(OC)c2F)C(=O)C32CC2)C1 (stereo not drawn) [Example 8, 6′-(1-acryloylpiperidin-3-yl)-2′-(2,6-difluoro-3,5-dimethoxyphenyl)-1′H-spiro[cyclopropane-1,4′-[2,7]naphthyridin]-3′(2′H)-one] | >10 | >2 | >2 | >5 | >1 | >1
C=CC(=O)Nc1cnc(C)c(-c2cc3c(cn2)CN(c2c(F)c(OC)cc(OC)c2F)C(=O)C32CC2)c1 [Example 7, N-(5-(2′-(2,6-difluoro-3,5-dimethoxyphenyl)-3′-oxo-2′,3′-dihydro-1′H-spiro[cyclopropane-1,4′-[2,7]naphthyridine]-6′-yl)-6-methylpyridin-3-yl)acrylamide] | >100 | >100 | >100 | >100 | >100 | >100
C=CC(=O)Nc1cc(-c2cc3c(cn2)CN(c2c(F)c(OC)cc(OC)c2F)C(=O)C32CC2)ccc1CN1CCOCC1 [Example 12, N-(5-(2′-(2,6-difluoro-3,5-dimethoxyphenyl)-3′-oxo-2′,3′-dihydro-1′H-spiro[cyclopropane-1,4′-[2,7]naphthyridine]-6′-yl)-2-(morpholinomethyl)phenyl)acrylamide] | >100 | >25 | >10 | >10 | >1 | >1
C=CC(=O)Nc1cnn(C[C@@H]2CCOC2)c1-c1cc2c(cn1)CN(c1c(F)c(OC)cc(OC)c1F)C(=O)C21CC1 [Example 28, (S)-N-(5-(2′-(2,6-difluoro-3,5-dimethoxyphenyl)-3′-oxo-2′,3′-dihydro-1′H-spiro[cyclopropane-1,4′-[2,7]naphthyridine]-6′-yl)-1-((tetrahydrofuran-3-yl)methyl)-1H-pyrazol-4-yl)acrylamide] | >100 | >100 | >100 |  |  | 
C=CC(=O)Nc1cnn(C[C@H]2CCOC2)c1-c1cc2c(cn1)CN(c1c(F)c(OC)cc(OC)c1F)C(=O)C21CC1 [Example 29, (R)-N-(5-(2′-(2,6-difluoro-3,5-dimethoxyphenyl)-3′-oxo-2′,3′-dihydro-1′H-spiro[cyclopropane-1,4′-[2,7]naphthyridine]-6′-yl)-1-((tetrahydrofuran-3-yl)methyl)-1H-pyrazol-4-yl)acrylamide] | >100 | >100 | >100 |  |  | 
C=CC(=O)Nc1cnn(Cc2cnn(C)c2)c1-c1cc2c(cn1)CN(c1c(F)c(OC)cc(OC)c1F)C(=O)C21CC1 [Example 27, N-(5-(2′-(2,6-difluoro-3,5-dimethoxyphenyl)-3′-oxo-2′,3′-dihydro-1′H-spiro[cyclopropane-1,4′-[2,7]naphthyridine]-6′-yl)-1-((1-methyl-1H-pyrazol-4-yl)methyl)-1H-pyrazol-4-yl)acrylamide] | >100 | >100 | >100 |  |  | 
C=CC(=O)Nc1ccc(C)c(-c2cc3c(cn2)CN(c2c(F)c(OC)cc(OC)c2F)C(=O)C32CC2)c1 [Example 2, N-(3-(2′-(2,6-difluoro-3,5-dimethoxyphenyl)-3′-oxo-2′,3′-dihydro-1′H-spiro[cyclopropane-1,4′-[2,7]naphthyridine]-6′-yl)-4-methylphenyl)acrylamide] | >100 | >100 | >100 | >100 | >100 | >100
C=CC(=O)Nc1cnn(Cc2ncn(C)n2)c1-c1cc2c(cn1)CN(c1c(F)c(OC)cc(OC)c1F)C(=O)C21CC1 [Example 23, N-(5-(2′-(2,6-difluoro-3,5-dimethoxyphenyl)-3′-oxo-2′,3′-dihydro-1′H-spiro[cyclopropane-1,4′-[2,7]naphthyridine]-6′-yl)-1-((1-methyl-1H-1,2,4-triazol-3-yl)methyl)-1H-pyrazol-4-yl)acrylamide] | >100 | >100 | >100 |  |  | 
C=CC(=O)Nc1cnn(CCN2CCOCC2)c1-c1cc2c(cn1)CN(c1c(F)c(OC)cc(OC)c1F)C(=O)C21CC1 [Example 19, N-(5-(2′-(2,6-difluoro-3,5-dimethoxyphenyl)-3′-oxo-2′,3′-dihydro-1′H-spiro[cyclopropane-1,4′-[2,7]naphthyridine]-6′-yl)-1-(2-morpholinoethyl)-1H-pyrazol-4-yl)acrylamide] | >100 | >100 | >100 |  |  | 
C=CC(=O)Nc1cn(CC(=O)N(C)C)nc1-c1cc2c(cn1)CN(c1c(F)c(OC)cc(OC)c1F)C(=O)C21CC1 [Example 36, N-(3-(2′-(2,6-difluoro-3,5-dimethoxyphenyl)-3′-oxo-2′,3′-dihydro-1′H-spiro[cyclopropane-1,4′-[2,7]naphthyridine]-6′-yl)-1-(2-(dimethylamino)-2-oxoethyl)-1H-pyrazol-4-yl)acrylamide] | >100 | >100 | >100 |  |  | 
